Assay results: publication PMC5632533, “Mechanisms of action and in vivo antibacterial efficacy assessment of five novel hybrid peptides derived from Indolicidin and Ranalexin against Streptococcus pneumoniae” (PeerJ, 2017)

Key:
[1] = test system: Streptococcus pneumoniae; settings: 30 pneumococcal clinical isolates; earlier study; ref Jindal et al., 2015; cited from earlier work
Source text: Table 1 Sequences and physicochemical properties of the template and hybrid AMPs. | column: MIC^a || One of the advantageous alternatives to today’s antibiotics is antimicrobial peptides (AMPs) ([Deslouches et al., 2013]; [Sánchez-Vásquez et al., 2013]). AMPs are synthesized by almost all living beings as the first line of defense in their immune system against microbial infection. Many aspects favor AMPs over traditional antibiotics: a broad range of antimicrobial activity against pathogenic micro-organisms (including viruses, parasites, bacteria, and fungi), microbial pathogens are less efficient in developing resistance against AMPs, as killing take place in a short contact time and AMPs c ...

[2] = test system: S. pneumoniae; assay: ATP efflux assay; format: cell-based, Streptococcus pneumoniae; settings: peptides 125 µg/ml (RN7-IN7 500 µg/ml); for ATP released, Average 1hr / ATP released, Average 2hr / ATP released, Average 3hr: raw data sheet, mean of 3
Experimental: The amount of ATP released from pneumococcal cells incubated with hybrid peptides was measured as described previously, with a slight modification ([Tanida et al., 2006]). The ATP determination kit (Molecular Probes, Eugene, OR, USA) was used to measure the amount of ATP released based on the luciferin/luciferase method according to the manufacturer’s instructions. Briefly, S. pneumoniae were grown overnight on Columbia agar with 5% sheep blood. Bacterial suspensions were spectrophotometrically adjusted to (1 × 10^7 CFU/ml) and incubated with hybrid peptides RN7-IN10, RN7-IN9, RN7-IN8 and RN7-IN6 at 125 µg/ml and with RN7-IN7 at 500 µg/ml. The amount of ATP released form the pneumococcal cells were measured at three time points 1, 2 and 3 h. The samples were then centrifuged at 5,000 rpm for 5 min, and ATP efflux was subsequently estimated using an ATP standard curve. Values were obtained from three independent experiments. Ceftriaxone and erythromycin were used as positive controls.

[3] = test system: S. pneumoniae; assay: Transmission electron microscopy (TEM) of treated cells; format: cell-based, Streptococcus pneumoniae; settings: 10^8 CFU/ml in CAMHB; 8 × MIC (125 µg/ml; RN7-IN7 500 µg/ml); 1 h, 37 °C, 5% CO2
Experimental: Bacteria were prepared for TEM according to the guidelines of the Electron Microscopy Unit at the Faculty of Medicine, University of Malaya. S. pneumoniae cultures were grown overnight on Columbia agar with 5% sheep blood and suspended in cationally adjusted Mueller-Hinton broth (CAMHB) at 10^8 CFU/ml. […] Cells in cationally adjusted Mueller-Hinton broth (CAMHB) were used as an untreated control. After an hour of incubation, the pneumococcal cells were centrifuged to discard the medium, washed thrice with 10 mM phosphate buffer saline at pH 7.3 and fixed overnight in 4% (v/v) glutaraldehyde. All samples were washed twice with cacodylate buffer, incubated for 2 h in osmium tetroxide buffer (OsO4 1: 1 cacodylate), washed twice with cacodylate buffer and then incubated overnight in cacodylate buffer. All the samples were washed with distilled water twice and incubated for 10 min with uranyl acetate. After this, all samples were then washed twice with distilled water and dehydrated in an ascending series of ethanol: 35% (10 min), 50% (10 min), 70% (10 min), 95% (15 min), and thrice in 100% ethanol (15 min). After dehydration, samples were incubated with propylene oxide (15 min), propylene oxide 1:1 Epon (1 h), propylene oxide 1:3 Epon (2 h) and finally incubated overnight with Epon. All the samples were embedded in agar 100 resin at 37 °C for 5 hr and maintained at 60 °C until viewing. Reichert Ultramicrotome copper grids 3.05 mm (300 square mesh) (Agar Scientific, Essex, United Kingdom) were used to prepare Ultrathin sections. Ethanol-based uranyl acetate and lead citrate were used to stain the samples for 5 min. Transmission electron microscope (Leo Libra 120) was used to capture the images.

[4] = test system: S. pneumoniae genomic DNA; assay: Gel retardation assay (DNA retardation); format: binding, Streptococcus pneumoniae; settings: 250 ng genomic DNA; 0.24–500 µg/ml tested; 10 min, room temperature; 1% agarose gel
Experimental: This assay was carried out as described previously, with minor modifications ([Li et al., 2013]). S. pneumoniae were grown overnight on Columbia agar with 5% sheep blood. A few bacterial colonies were transferred into a 1.5 ml eppendorf tube containing phosphate buffered saline (PBS). The bacterial cells were centrifuged, PBS was discarded and 50 µl of TE buffer containing 0.08 g/ml of lysozyme and 150 U/ml of mutanolysin was added to the cells. Genomic DNA was isolated from pneumococcal cells using DNeasy Blood & Tissue Kit (Qiagen, Hilden, Germany), following the manufacturer’s giudlines. The optical density ratio of 260 nm and 280 nm (OD260∕OD280 = 1.83) was used to measure the purity of the DNA. Genomic DNA (250 ng) was incubated with hybrid peptides at various concentrations (0.24–500 µg/ml) in 12 μl at room temperature for 10 min. 2 μl of loading buffer were added to the mixture and the migration of DNA through 1% agarose gel was evaluated by electrophoresis in 1 × Tris borate–EDTA buffer (45 mM Tris–borate and 1 mM EDTA at pH 8.0) and spotted by the fluorescence of gel stain (Gel Red, BIOTIUM, Fremont, CA, USA). The natural peptide indolicidin was used as positive controls, ceftriaxone and erythromycin were used as negative controls.

[5] = test system: S. pneumoniae (highly virulent strain); assay: In vivo antipneumococcal activity, pneumococcal bacteremia (lethal systemic infection) model; set-up: species or system mice
Experimental: Two pneumococcal infection models developed previously in our lab ([Le et al., 2015]) were used to assess the therapeutic efficacy of peptides in vivo. The systemic infection model was used to mimic pneumococcal bacteremia in humans and the pneumococcal pneumonia model was used to mimic pneumococcal pneumonia in humans. A highly virulent strain was used in both the models. The bacterial isolate was grown overnight on Columbia agar with 5% sheep blood at 37 °C under 5% CO2. The bacterial suspension was adjusted to OD625 0.08-0.1 (1 ∼ 2 × 10^8 CFU/ml). Mice tested for lethal systemic infection were inoculated with 1.5 × 10^2 CFU/mouse (100 μl) via IP route. Mice used to assess the Pneumococcal pneumonia model were inoculated with pneumococcal cells of 5 × 10^3 CFU/mouse (50 μl) via the intrathoracic route.
After 1 hr of inoculation, Mice receiving treatment were randomized and divided into six groups. RN7-IN10 and RN7-IN8 were tested at three different doses for each (5 mg/kg, 10 mg/kg and 20 mg/kg) using a group of 10 mice. Graded doses of ceftriaxone (5 mg/kg, 10 mg/kg, […], 40 mg/kg and 80 mg/kg) were also tested to assess the in vivo antibacterial activity of this antibiotic. Only mice injected with PBS were served as uninfected control. Mice injected with bacterial inoculum were used as untreated control group and given sterile distilled water only. Survival of mice was documented for seven days or until death. After seven days, the experiment was ended, the blood and homogenates of the five major organs (kidney, brain, spleen, liver and lung) of the surviving mice were plated on Columbia agar with 5% sheep blood, to detect the presence of pneumococcal cells. […]

[6] = test system: Resistant S. pneumoniae; settings: incubation with resistant S. pneumoniae; ref Jindal et al., 2015; cited from earlier work
[7] = 1 × 10^7 CFU/ml, luciferin/luciferase, ATP standard curve, mean ± SD, three independent experiments

| Molecule | MIC, minimum inhibitory concentration [1] [µg/mL] | ATP released from pneumococcal cells after 1 h [2, 7] [pM] | concentration inhibiting migration of genomic DNA through the agarose gel [4] [µg/mL] | ATP released, Average 1hr [2] [pM] | ATP released, Average 2hr [2] [pM] | ATP released, Average 3hr [2] [pM] | further results |
| --- | --- | --- | --- | --- | --- | --- | --- |
| FLGGLIKIVPAMICAVTKKC-OH [Ranalexin, natural template antimicrobial peptide] | 62.5 | – | – | – | – | – | – |
| FLGGLIKPWWPWRR-NH2 [RN7-IN7, hybrid peptide of ranalexin (residues 1-7) and indolicidin (residues 7-13)] | 62.5 | 22.35 ± 0.9 | – | – | – | – | ATP released from pneumococcal cells after 3 h [2, 7]: 13.02 ± 2.26 pM; TEM: detachment of cell wall from cell membrane [3]: partial disconnection of the cell wall from the cell membrane |
| ILPWKWPWWPWRR-NH2 [Indolicidin, natural template (parent) antimicrobial peptide] | 15.62 to 31.25 | – | 62.5 | – | – | – | – |
| CC[C@H]1OC(=O)[C@H](C)[C@@H](O[C@H]2C[C@@](C)(OC)[C@@H](O)[C@H](C)O2)[C@H](C)[C@@H](O[C@@H]2O[C@H](C)C[C@H](N(C)C)[C@H]2O)[C@](C)(O)C[C@@H](C)C(=O)[C@H](C)[C@@H](O)[C@]1(C)O [erythromycin, reference compound] | – | 0.49 ± 0.004 | > 500 | 0.4933 | 0.4736 | 0.3124 | – |
| CO/N=C(\C(=O)N[C@@H]1C(=O)N2C(C(=O)O)=C(CSc3nc(=O)c(=O)[nH]n3C)CS[C@H]12)c1csc(N)n1 [ceftriaxone, reference compound] | – | 5.24 ± 1.43 | > 500 | 5.248 | 3.522 | 3.119 | survival of infected mice up to seven days post-infection ([5]; 1.5 × 10^2 CFU/mouse IP, treatment IP 5 mg/kg (peptides at 1 h, 12 h, 24 h post-infection), 10 mice): 10%; survival of infected mice up to seven days post-infection ([5]; 1.5 × 10^2 CFU/mouse IP, treatment IP 10 mg/kg (peptides at 1 h, 12 h, 24 h post-infection), 10 mice): 30%; survival of infected mice up to seven days post-infection ([5]; 1.5 × 10^2 CFU/mouse IP, treatment IP 20 mg/kg (peptides at 1 h, 12 h, 24 h post-infection), 10 mice): 40%; survival of infected mice up to seven days post-infection ([5]; treatment IP 40 mg/kg): 70%; survival of infected mice up to seven days post-infection ([5]; treatment IP 80 mg/kg): 90%; time to bactericidal activity / elimination of S. pneumoniae [6]: > 240 min |
